The source of these data is patent publication US20220324770A1, “NITRIFICATION INHIBITORS” (The University of Melbourne, priority 2019, published 2022).

In experiment [1] the test system is Horsham soil. Description: Soil microcosm incubation (nitrification of applied ammonium), Horsham soil. Here is the method: (§1) The soil used in this study was collected from four different locations in Victoria, Australia: (i) a wheat cropping soil from Horsham (36° 45′S, 142° 07′ E), (ii) a rotational cropping soil from Dahlen (36° 37′S, 142° 09′ E), (iii) a vegetable growing soil from Clyde (38° 08′S, 145° 20′ E), and (iv) a pasture soil from Terang (38° 15′S, 142° 52′E). In addition, a sugarcane cropping soil from South Johnstone in northern Queensland (17° 34′S, 145° 57′ E) was also studied. The water content of the soil was calculated before commencing each experiment, from samples that were oven-dried to constant weight. The soil's water-filled pore space (WFPS) was in the range 52%-61%, which is within the recommended 50-70% range for microbial activity due to oxygen and nutrient availability (Fichtner, T., et al., Applied Sciences, 2019, 9, 496).
(§2) Soil microcosm incubations were carried out in 250 ml polypropylene specimen containers (Sarstedt, Germany), containing 18.24 g oven dry-weight equivalent of soil. Microcosms were re-wetted and pre-incubated at the test temperature for seven days to revive soil microbial activity. Following pre-incubation, the remaining volume to reach the desired water-filled pore spaces (WFPS %) was applied as one of the following treatment solutions; (NH4)2SO4(Control), (NH4)2SO4+DMPP, or (NH4)2SO4+one of Compounds 1-23. Each treatment was applied in triplicate per soil type, so that n=3 at each time point.
(§3) Treatment solutions were prepared such that each microcosm received (NH4)2SO4 at a rate of 100 mg N per kg soil, Compounds 1-23 at 10 mol % of applied N, or DMPP at one of 1.5, 3.6 or 10 mol % of applied N, referred to as L-DMPP, M-DMPP or H-DMPP respectively.
(§4) The microcosms were incubated for 0, 3, 7, 14, 21 or 28 days, where day 0 samples were extracted following 1-hour incubation post-treatment. Soil microcosms were aerated and moisture levels were replenished based on weight loss every few days throughout the incubation period.
(§5) At the end of each incubation period, soil microcosms were destructively sampled by treatment with 2M KCl (100 mL). After shaking for 1 hour, soil-KCl solutions were filtered (Whatman 42) before storing the filtrates at −20° C. until the conclusion of the experiment. All KCl extracts were then analysed by Segmented Flow Analysis (San++, Skalar, Breda, The Netherlands) for the concentration of nitrogen from ammonium (NH4^+—N) and nitrogen from NO3 and NO2 (NOx^−—N) after appropriate dilutions. Results are reported as the mean of three replicates, errors reported are standard errors of the mean.
(§6) Nitrification calculations were performed as previously reported (Aulakh, M., et al., Biology and Fertility of Soils 2001, 33, 258-263; Mahmood, T., et al., Soil Research 2017, 55, 715-722) without correction for the initial baseline concentrations of NH4^+—N or NO3^− N in the untreated soil. For each treatment nitrified NH4^+—N (%) was calculated according to eqn. 1:
(§7) where [NH4^+—N]0 is the NH4^+—N concentration (in mg N kg^−1 soil) of the soil on day 0 and [NH4^+—N]t is the NH4^+—N concentration (in mg N kg^−1 soil) of the soil at a given time point t.
(§8) NOx^−—N accumulation rates (mg NOx^−—N/kg soil/day) over the 28-day incubation experiments were calculated for each treatment as in the following (eqn. 2):
(§9) [NOx^−—N]t=0 and [NOx^−—N]t=28 are the combined concentrations of nitrite (NO2) and nitrate (NO3) in the soil (in mg N kg^−1 soil) on day 0 and day 28, respectively.

The subject of experiment [2] is Dahlen soil. As to the kind of experiment: Soil microcosm incubation (nitrification of applied ammonium), Dahlen soil. The following applies: for Nitrified NH4+—N (%) Day 3 / Nitrified NH4+—N (%) Day 7 / Nitrified NH4+—N (%) Day 14 / Nitrified NH4+—N (%) Day 21 / Nitrified NH4+—N (%) Day 28: 10 mol %. How it is done: as §1, §2, §3, §4, §5, §6, §7, §8, §9
The mark [3] stands for this setting: Horsham soil pH 8.8, 25° C., inhibitors 10 mol % of applied N.
Setting [4] is: Horsham soil pH 8.8, 25° C., 10 mol %.
The mark [5] stands for this setting: Horsham soil pH 8.8, 35° C., 10 mol %.
Where [6] appears, read: Table 4, Dahlen soil pH 7.3, 25° C.
Setting [7] is: Table 4, Dahlen soil pH 7.3, 35° C.
Where [8] appears, read: Dahlen soil, 25° C., Table 5 test.
[9] abbreviates: Table 5 (further comparative test), Dahlen soil pH 7.3, 25° C.
Setting [10] is: Table 5, Dahlen soil pH 7.3, 25° C.
The mark [11] stands for this setting: Table 5, Dahlen soil pH 7.3, 35° C.

As for `CCCCn1cc(CCC)nn1` [Compound 13, 1-butyl-4-propyl-1H-1,2,3-triazole], the “Nitrified NH4+—N (%) Day 3” value is 17.7 ± 3.9% in experiment [1] (setting [3]), 3.5 ± 6.4% in experiment [1] (setting [5]), 10.6 ± 3.7% in experiment [2] (setting [6]) and −1.2 ± 1.1% in experiment [2] (setting [7]). In addition, the “Nitrified NH4+—N (%) Day 7” value in experiment [1] (setting [4]) is 23.4 ± 5.4%; in experiment [1] (setting [5]), 18.7 ± 5.5%; in experiment [2] (setting [6]), 22.2 ± 50.2%; in experiment [2] (setting [7]) it was 3.5 ± 1.3%. Further, the “Nitrified NH4+—N (%) Day 14” value in experiment [1] (setting [4]) is 40.0 ± 4.3%; in experiment [1] (setting [5]), 48.0 ± 5.3%; in experiment [2] (setting [6]) it was 24.9 ± 59.3%; in experiment [2] (setting [7]) it was 9.2 ± 1.1%. Moreover, the “Nitrified NH4+—N (%) Day 21” value in experiment [1] (setting [4]) amounted to 47.2 ± 4.3%; in experiment [1] (setting [5]) it was 59.3 ± 10.3%; in experiment [2] (setting [6]), 32.6 ± 2.4%; in experiment [2] (setting [7]) it was 34.2 ± 2.4%. In addition, the “Nitrified NH4+—N (%) Day 28” value in experiment [1] (setting [4]) was 72.2 ± 4.8%; in experiment [1] (setting [5]), 61.2 ± 14.2%; in experiment [2] (setting [6]), 41.5 ± 1.2%; in experiment [2] (setting [7]), 33.6 ± 1.3%. Also, the “rate of NOx−—N accumulation” value in experiment [1] (Horsham soil, 25° C., 28-day incubation) is 2.8 mg NOx−—N/kg soil/day; in experiment [1] (Horsham soil, 35° C., 28-day incubation), 2.8 mg NOx−—N/kg soil/day. For the same molecule, the “retaining NH4+ vs uninhibited control treatment” value in experiment [1] (Horsham soil, 25° C., after 28 days) was “performed statistically better”. Further, the “nitrification rates vs uninhibited control treatment” value in experiment [1] (Horsham soil, 35° C.) is on record as “lower nitrification rates than the uninhibited control treatment”. Moreover, in experiment [1] (Horsham soil, 35° C.), the “retaining NH4+ and preventing NOx production (statistics vs control)” value was “performed statistically better”. Further, the “NH4+—N consumption” value in experiment [1] (Horsham soil, 35° C., after 28 days) was 61%. The “NOx−—N accumulation rate” value in experiment [2] (Dahlen soil, 25° C., 28-day incubation) was found to be 2.5 mg NOx−—N/kg soil/day; in experiment [2] (Dahlen soil, 35° C., 28-day incubation), 2.4 mg NOx−—N/kg soil/day. For the same molecule, in experiment [2] (Dahlen soil, 25° C., after 28 days), the “retaining NH4+—N vs uninhibited control treatment and DMPP” value was “performed statistically better”. In addition, the “NOx−—N accumulation rate: effect of temperature (25° C. vs 35° C.)” value in experiment [2] (Dahlen soil, 28-day incubation) was “least affected by the temperature change”. In experiment [2] (Dahlen soil, 35° C., after 28 days), the “retaining NH4+ vs both DMPP treatment and control treatment” value is on record as “performed statistically better”.

`CCCCc1cn(CCOC)nn1` [Compound 14, 1-(2-methoxyethyl)-4-butyl-1H-1,2,3-triazole]: the “Nitrified NH4+—N (%) Day 3” value in experiment [1] (setting [3]) was found to be 23.8 ± 3.0%. Moreover, in experiment [1] (setting [4]), the “Nitrified NH4+—N (%) Day 7” value was determined as 38.7 ± 5.3%, the “Nitrified NH4+—N (%) Day 14” value came out at 84.3 ± 5.6%, the “Nitrified NH4+—N (%) Day 21” value was determined as 93.4 ± 6.2% and the “Nitrified NH4+—N (%) Day 28” value stood at 100 ± 3.2%. In experiment [1] (setting [5]), the “Nitrified NH4+—N (%) Day 3” value was 13.2 ± 5.4%, the “Nitrified NH4+—N (%) Day 7” value worked out at 15.7 ± 5.7%, the “Nitrified NH4+—N (%) Day 14” value was 39.8 ± 6.6% and the “Nitrified NH4+—N (%) Day 21” value was found to be 83.5 ± 7.2%. Besides, the “Nitrified NH4+—N (%) Day 28” value in experiment [1] (setting [5]) was 79.7 ± 9.4%. In experiment [1] (Horsham soil, 28-day incubation), the “NOx−—N accumulation: effect of temperature (25° C. vs 35° C.)” value was “lower at the elevated temperature”.

In the case of `C=CCOC(=O)Cn1cc(CCC)nn1` [Compound 20, prop-2-en-1-yl 2-(4-propyl-1H-1,2,3-triazol-1-yl)-acetate], the “retaining NH4+—N levels by day 28 vs fertilised control (and DMPP)” value in experiment [2] (setting [8]) was “performed statistically better than the fertilised control”. For the same molecule, in experiment [2] (Dahlen soil, 35° C., Table 5 test), the “retaining NH4+—N vs (NH4)2SO4-treated control by day 28” value is listed as “remain highly effective”. Moreover, the “Nitrified NH4+—N (%) Day 3” value in experiment [2] (setting [9]) is 1.9 ± 1.3%. Moreover, in experiment [2] (setting [10]), the “Nitrified NH4+—N (%) Day 7” value turned out to be 8.0 ± 0.6%, the “Nitrified NH4+—N (%) Day 14” value came out at 15.2 ± 1.2%, the “Nitrified NH4+—N (%) Day 21” value was 26.0 ± 2.1% and the “Nitrified NH4+—N (%) Day 28” value was determined as 31.8 ± 4.5%. For the same molecule, in experiment [2] (setting [11]), the “Nitrified NH4+—N (%) Day 3” value turned out to be 16.6 ± 4.5%, the “Nitrified NH4+—N (%) Day 7” value came to 5.0 ± 4.3%, the “Nitrified NH4+—N (%) Day 14” value was 17.7 ± 3.8% and the “Nitrified NH4+—N (%) Day 21” value is given as 17.1 ± 3.6%. The “Nitrified NH4+—N (%) Day 28” value in experiment [2] (setting [11]) worked out at 45.6 ± 8.3%.

As for `C#CCNC(=O)Cn1cc(CCC)nn1` [Compound 23, prop-2-yn-1-yl 2-(4-propyl-1H-1,2,3-triazol-1-yl)-acetamide], in experiment [2] (setting [8]), the “retaining NH4+—N levels by day 28 vs fertilised control (and DMPP)” value was “performed statistically better”. In addition, the “Nitrified NH4+—N (%) Day 3” value in experiment [2] (setting [9]) turned out to be 4.8 ± 2.9%. For the same molecule, in experiment [2] (setting [10]), the “Nitrified NH4+—N (%) Day 7” value is 15.7 ± 1.5%, the “Nitrified NH4+—N (%) Day 14” value was 30.3 ± 0.8%, the “Nitrified NH4+—N (%) Day 21” value is on record as 35.9 ± 1.2% and the “Nitrified NH4+—N (%) Day 28” value was 60.5 ± 1.0%. Also, in experiment [2] (setting [11]), the “Nitrified NH4+—N (%) Day 3” value came to 15.6 ± 6.4%, the “Nitrified NH4+—N (%) Day 7” value worked out at 8.8 ± 5.6%, the “Nitrified NH4+—N (%) Day 14” value is on record as 24.0 ± 6.7% and the “Nitrified NH4+—N (%) Day 21” value is listed as 41.7 ± 4.7%. The “Nitrified NH4+—N (%) Day 28” value in experiment [2] (setting [11]) was 64.6 ± 4.9%.
